Patent US9518008B2, “(1S,2S,3S,4R)-3-[(1S)-1-acetylamino-2-ethyl-butyl]-4-uanidino-2-hydroxyl-cyclopentyl-1-carboxylic acid hydrates pharmaceutical uses thereof” (Institute of Pharmacology and Toxicology Academy of …, priority 2007, dated 2016)

Assay: Determination of hygroscopicity (high humidity test)
Type: physicochemical
Procedure: The hygroscopicity of the compound of the invention can be tested by a standard hygroscopicity test method. For example, the compound is stored in a sealed vessel at room temperature at a relative humidity of 92.5%, 80% or 75%, and the change in moisture content of the compound is tested by sampling at regular intervals.
At the 5th and 10th days, the products were sampled and determined in aspect of important items relating to stability investigation. […] If the weight gain of a product due to moisture absorption was more than 5%, the product was further experimented according to the same method under a relative humidity of 75%±5%. If the weight gain of a product due to moisture absorption was less than 5%, and other items thereof under investigation met the relevant requirements, no more experiment was needed. The humidity-constant condition could be achieved by placing a saturated saline solution at the lower part of a sealed vessel, e.g., a desiccator, and a NaCl saturated solution (15.5-60° C., a relative humidity of 75%±1%) or a KNO3 saturated solution (25° C., a relative humidity of 92.5%) may be selected according to the requirement of different relative humidity.

[1] = Relative humidity 92.5%, 25° C.

SMILES	Hygroscopicity at the 5th day (Relative humidity 75%) [%]	Hygroscopicity at the 10th day (Relative humidity 75%) [%]	Hygroscopicity at the 5th day [1] [%]	Hygroscopicity at the 10th day [1] [%]
CCC(CC)[C@H](NC(C)=O)[C@H]1[C@H](O)[C@@H](C(=O)O)C[C@H]1NC(=N)N.CCC(CC)[C@H](NC(C)=O)[C@H]1[C@H](O)[C@@H](C(=O)O)C[C@H]1NC(=N)N.O.O.O [Sesquihydrate, (1S,2S,3S,4R)-3-[(1S)-1-acetylamino-2-ethyl-butyl]-4-guanidino-2-hydroxy-cyclopentyl-1-carboxylic acid sesquihydrate]	4.01	6.89	4.48	7.33
CCC(CC)[C@H](NC(C)=O)[C@H]1[C@H](O)[C@@H](C(=O)O)C[C@H]1NC(=N)N.O [Monohydrate, (1S,2S,3S,4R)-3-[(1S)-1-acetylamino-2-ethyl-butyl]-4-guanidino-2-hydroxy-cyclopentyl-1-carboxylic acid monohydrate]	2.41	2.77	2.83	3.35
CCC(CC)[C@H](NC(C)=O)[C@H]1[C@H](O)[C@@H](C(=O)O)C[C@H]1NC(=N)N.O.O.O.O.O.O [Hexahydrate, (1S,2S,3S,4R)-3-[(1S)-1-acetylamino-2-ethyl-butyl]-4-guanidino-2-hydroxy-cyclopentyl-1-carboxylic acid hexahydrate]	3.86	6.33	4.37	9.96
